# Assay results published in patent publication US20250230193A1, “CYCLIC COMPOUND HAVING SELECTIVE KRAS INHIBITORY EFFECT ON HRAS AND NRAS” (CHUGAI SEIYAKU KABUSHIKI KAISHA, priority 2022, published 2025).
# *1 amine or outer side, *2 acyl side, *3 side chain or, on linkers, in order; H or OH if unused. Where a SMILES comes first, the peptide text is derived from it. Bridges are numbered along the chain shown (N, C = ends). [ ]: non-standard residue; d: D form. The star is where a group is joined. hPhe(3-Cl-4-CF3) = N[C@@H](CCc1ccc(C(F)(F)F)c(Cl)c1)C(=O)O; X17 = CCCCN([C@@H](Cc1ccc(C(F)(F)F)cc1)C(=O)[*:2])[*:1]; NPrPhe(4-CF3) = CCCN[C@@H](Cc1ccc(C(F)(F)F)cc1)C(=O)O; NMeGly(cPent) = CN[C@H](C(=O)O)C1CCCC1; Aze(3S-Me) = C[C@H]1CN[C@@H]1C(=O)O; Hyp = O=C(O)[C@@H]1C[C@@H](O)CN1; NMeD = CN[C@@H](CC(=O)O)C(=O)O; NMeL = CN[C@@H](CC(C)C)C(=O)O; Morpholide = C1CN(*)CCO1; NMeA = CN[C@@H](C)C(=O)O; Ac5c = NC1(C(=O)O)CCCC1; Aze = O=C(O)[C@@H]1CCN1; Sar = CNCC(=O)O
# Legend:
# [1] = target: GDP-bound HRAS wild-type protein (Homo sapiens, UniProt P01112); test: Binding to HRAS by surface plasmon resonance (SPR), Single Cycle Kinetics
# Sequence of GDP-bound HRAS wild-type protein (P01112 whole entry): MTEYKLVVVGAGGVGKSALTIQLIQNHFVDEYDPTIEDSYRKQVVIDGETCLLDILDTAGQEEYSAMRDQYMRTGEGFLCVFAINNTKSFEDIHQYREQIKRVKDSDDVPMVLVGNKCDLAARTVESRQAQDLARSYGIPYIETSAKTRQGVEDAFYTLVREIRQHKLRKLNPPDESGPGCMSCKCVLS
# [2] = target: GDP-bound NRAS wild-type protein (Homo sapiens, UniProt P01111); test: Binding to NRAS by surface plasmon resonance (SPR), Single Cycle Kinetics
# Sequence of GDP-bound NRAS wild-type protein (P01111 whole entry): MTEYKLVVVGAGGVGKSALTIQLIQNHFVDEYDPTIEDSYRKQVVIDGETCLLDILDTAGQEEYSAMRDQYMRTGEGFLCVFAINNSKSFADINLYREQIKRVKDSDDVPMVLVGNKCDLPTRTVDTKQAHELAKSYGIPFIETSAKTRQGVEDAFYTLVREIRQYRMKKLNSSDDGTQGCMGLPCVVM
# [3] = KD ratio, GDP-bound HRAS wild-type vs GDP-bound KRAS wild-type, SPR
# [4] = KD ratio, GDP-bound NRAS wild-type vs GDP-bound KRAS wild-type, SPR
structure (smiles),measurement,setting,value
CCC[C@H]1C(=O)N[C@@H]([C@@H](C)CC)C(=O)N(C2CC2)CC(=O)N(C)[C@H]2C/C=C\CCN(C2=O)[C@@H](Cc2ccc(C(F)(F)F)cc2)C(=O)N(C)CC(=O)N[C@@H](CCc2ccc(C(F)(F)F)c(OC)c2)C(=O)N2C[C@@H](C)C[C@H]2C(=O)N(C)C2(CCC2)C(=O)N(C)[C@@H](C2CCCC2)C(=O)N(C)[C@H](C(=O)N(C)C)CC(=O)N1C [PP2360],HRAS/KRAS (ratio of KD value with respect to HRAS to KD value with respect to KRAS),"[1]; SPR, GDP-bound HRAS wild-type vs GDP-bound KRAS wild-type",B (a compound having 3 or more and less than 10 is denoted as B)
same,NRAS/KRAS (ratio of KD value with respect to NRAS to KD value with respect to KRAS),"[2]; SPR, GDP-bound NRAS wild-type vs GDP-bound KRAS wild-type",A (a compound having 10 or more and less than 20 is denoted as A)
CCCOC[C@H]1C(=O)N[C@@H]([C@@H](C)CC)C(=O)N(C)CC(=O)N(C)[C@H]2C/C=C\CCN(C2=O)[C@@H](Cc2ccc(C(F)(F)F)cc2)C(=O)N(C)CC(=O)N[C@@H](CCc2ccc(C(F)(F)F)c(OC)c2)C(=O)N2C[C@H](OCC)C[C@H]2C(=O)NC2(CCC2)C(=O)N(C)[C@@H](C2CCCC2)C(=O)N(C)[C@H](C(=O)N(C)CC)CC(=O)N1C [PP2016],HRAS/KRAS (ratio of KD value for HRAS to KD value for KRAS),[1]; [3],A (a compound having 10 or more and less than 20 is denoted as A)
same,NRAS/KRAS (ratio of KD value for NRAS to KD value for KRAS),[2]; [4],A (a compound having 10 or more and less than 20 is denoted as A)
CCCCN1C(=O)[C@@H]2CCN2C(=O)[C@H](C)N(C)C(=O)[C@H]([C@@H](C)CC)NC(=O)[C@H](CC(C)C)N(C)C(=O)C[C@@H](C(=O)N2CCOCC2)N(C)C(=O)[C@H](C2CCCC2)N(C)C(=O)C2(CCCC2)NC(=O)[C@@H]2CCCN2C(=O)[C@H](CCc2ccc(C(F)(F)F)c(Cl)c2)NC(=O)CN(C)C(=O)[C@@H]1Cc1ccc(C(F)(F)F)cc1 [PP0106] ([NMeL]I[NMeA][Aze][X17][Sar][hPhe(3-Cl-4-CF3)]P[Ac5c][NMeGly(cPent)][NMeD]-Morpholide; lactam N-11),HRAS/KRAS (ratio of KD for GDP-bound HRAS wild-type to KD for KRAS),[1]; SPR,B (a compound having 3 or more and less than 10 is denoted as B)
same,NRAS/KRAS (ratio of KD for GDP-bound NRAS wild-type to KD for KRAS),[2]; SPR,C (A compound having a KD ratio of 0.1 or more and less than 3 is denoted as C)
CC[C@H](C)[C@@H]1NC(=O)[C@H](C)N(C)C(=O)C[C@@H](C(=O)N(C)C)N(C)C(=O)[C@H](C2CCCC2)N(C)C(=O)C2(CCC2)NC(=O)[C@@H]2CC(F)(F)CN2C(=O)[C@H](CCc2cc(F)c(C(F)(F)F)c(F)c2)NC(=O)CN(C)C(=O)[C@H](Cc2ccc(C(F)(F)F)cc2)N2CC/C=C\C[C@@H](C2=O)N(C)C(=O)CN(C)C1=O [PP1103],HRAS/KRAS (ratio of KD value with respect to HRAS to KD value with respect to KRAS),[1]; [3],B (a compound having 3 or more and less than 10 is denoted as B)
same,NRAS/KRAS (ratio of KD value with respect to NRAS to KD value with respect to KRAS),[2]; [4],A (a compound having 10 or more and less than 20 is denoted as A)
CCO[C@@H]1C[C@H]2C(=O)NC3(CCC3)C(=O)N(C)[C@@H](C3CCCC3)C(=O)N(C)[C@H](C(=O)N(C)CC)CC(=O)N(C)[C@@H](CC(C)C)C(=O)N[C@@H]([C@@H](C)CC)C(=O)N(C)CC(=O)N(C)[C@H]3C/C=C\CCN(C3=O)[C@@H](Cc3ccc(C(F)(F)F)cc3)C(=O)N(C)CC(=O)N[C@@H](CCc3ccc(C(F)(F)F)c(OC)c3)C(=O)N2C1 [PP2846],HRAS/KRAS (ratio of KD value with respect to GDP-bound HRAS wild-type protein to KD value with respect to KRAS),[1]; class symbols,A (a compound having 10 or more and less than 20 is denoted as A)
same,NRAS/KRAS (ratio of KD value with respect to GDP-bound NRAS wild-type protein to KD value with respect to KRAS),[2]; class symbols,AA (a compound having 20 or more is denoted as AA)
CCCN1C(=O)[C@@H]2[C@@H](C)CN2C(=O)[C@H](C)N(C)C(=O)[C@H]([C@@H](C)CC)NC(=O)[C@H](CC(C)C)N(C)C(=O)C[C@@H](C(=O)N2CCOCC2)N(C)C(=O)[C@H](C2CCCC2)N(C)C(=O)C2(CCCC2)NC(=O)[C@@H]2CCCN2C(=O)[C@H](CCc2ccc(C(F)(F)F)c(Cl)c2)NC(=O)CN(C)C(=O)[C@@H]1Cc1ccc(C(F)(F)F)cc1 [PP0141] ([NMeL]I[NMeA][Aze(3S-Me)][NPrPhe(4-CF3)][Sar][hPhe(3-Cl-4-CF3)]P[Ac5c][NMeGly(cPent)][NMeD]-Morpholide; lactam N-11),HRAS/KRAS (ratio of KD for GDP-bound HRAS wild-type to KD for KRAS),[1]; SPR,B (a compound having 3 or more and less than 10 is denoted as B)
same,NRAS/KRAS (ratio of KD for GDP-bound NRAS wild-type to KD for KRAS),[2]; SPR,C (A compound having a KD ratio of 0.1 or more and less than 3 is denoted as C)
CCO[C@@H]1C[C@H]2C(=O)NC3(CC(C)(C)C3)C(=O)N(C)[C@@H](C(CC)CC)C(=O)N(C)[C@H](C(=O)N3CCCC3)CC(=O)N(C)[C@H]3CCC/C=C/c4ccc(cc4)C[C@@H](C(=O)N(C)CC(=O)N[C@@H](CCc4ccc(Cl)c(Cl)c4)C(=O)N2C1)N1CC/C=C\C[C@@H](C1=O)N(C)C(=O)CN(C)C(=O)[C@H]([C@@H](C)CC)NC3=O [PP2581],HRAS/KRAS (ratio of KD value with respect to GDP-bound HRAS wild-type protein to KD value with respect to KRAS),[1]; class symbols,A (a compound having 10 or more and less than 20 is denoted as A)
same,NRAS/KRAS (ratio of KD value with respect to GDP-bound NRAS wild-type protein to KD value with respect to KRAS),[2]; class symbols,AA (a compound having 20 or more is denoted as AA)
CCCN1C(=O)CN(C)C(=O)CN(C)C(=O)[C@H]([C@@H](C)CC)NC(=O)[C@H](CC(C)C)N(C)C(=O)C[C@@H](C(=O)N(C)C)N(C)C(=O)[C@H](C2CCCC2)N(C)C(=O)C2(CCCC2)NC(=O)[C@@H]2C[C@@H](OCC)CN2C(=O)[C@H](CCc2ccc(C(F)(F)F)c(Cl)c2)NC(=O)CN(C)C(=O)[C@@H]1Cc1ccc(C(F)(F)F)cc1 [PP0415] ([NMeL]I[Sar][Sar][NPrPhe(4-CF3)][Sar][hPhe(3-Cl-4-CF3)][Hyp](Et)[Ac5c][NMeGly(cPent)][NMeD]-NMe2; lactam N-11),HRAS/KRAS (ratio of KD value with respect to GDP-bound HRAS wild-type protein to KD value with respect to KRAS),[1]; SPR,B (a compound having 3 or more and less than 10 is denoted as B)
same,NRAS/KRAS (ratio of KD value with respect to GDP-bound NRAS wild-type protein to KD value with respect to KRAS),[2]; SPR,B (a compound having 3 or more and less than 10 is denoted as B)
